Experiment in all cases: inhibition of tumour cell growth, NCI panel, 48 h
Experiment [1] concerns SK-MEL-5.
Experiment [2] deals with DMS-273.
The subject of experiment [3] is EKVX.
Experiment [4] relates to OVCAR-4.
The subject of experiment [5] is T47D.
For experiment [6], the system named is MDA-MB-435.
For experiment [7], the system named is SK-OV-3.
For experiment [8], the system named is K562.
Experiment [9] relates to RPMI-8226.
Experiment [10] relates to UO-31.
Experiment [11] deals with UACC-62.
In experiment [12] the test system is HL-60.
The test system of experiment [13] is HT-29.
Experiment [14] concerns MDA-N.
The subject of experiment [15] is HOP-62.
The subject of experiment [16] is UACC-257.
Experiment [17] relates to A549.
Experiment [18] relates to SF-295.
The subject of experiment [19] is HOP-92.
In experiment [20] the test system is SF-268.

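96-well plates; 48 h exposure; 5 concentrations. Endpoints by linear interpolation between flanking doses. Not reached: highest tested concentration assigned. GI50 is the concentration that inhibits growth by half.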 Calls of active or inactive are those of the source. No stated cut-off is given here; in the data, active = GI50 up to about 1.1 µM and inactive = higher.

From ChEMBL document CHEMBL1201862, “PubChem BioAssay data set” (2004) come the findings set out here.

On to `COc1ccc(CC2C(=O)NC(C)C(=O)N(C)C3Cc4ccc(cc4)Oc4cc(ccc4O)CC(C(=O)NC(C)C(=O)NC(C)C(=O)N2C)N(C)C3=O)cc1` (centres undefined), for which the GI50 in experiment [1] is 0.0175 µM (active); in experiment [2], 0.0175 µM (active); in experiment [3] it was 0.0175 µM (active); in experiment [4], 0.0175 µM (active); in experiment [5] it was < 0.0001 µM (active); in experiment [6], < 0.0001 µM (active). In addition, the GI50 in experiment [7] is 0.0175 µM (active); in experiment [8] it was 0.0175 µM (active); in experiment [9], 0.0175 µM (active); in experiment [10], 0.857 µM (active); in experiment [11], 0.0175 µM (active); in experiment [12], 0.0175 µM (active). The GI50 in experiment [13] is 0.0355 µM (active); in experiment [14] it was < 0.0001 µM (active); in experiment [15] it was 0.0179 µM (active); in experiment [16] it was 0.0175 µM (active).
As for `Cc1[nH]c2ccccc2c1C1Cc2ccccc2N1C(=O)/C(Cl)=C/c1ccccc1` (centres undefined), the GI50 is > 100 µM (inactive) in experiment [1]; > 100 µM (inactive) in [2]; > 48.9 µM (inactive) in experiment [3]; > 88.1 µM (inactive) in experiment [4]; > 100 µM (inactive) in [7]; 70.3 µM (inactive) in [8]. For the same compound, the GI50 in [9] is > 72.6 µM (inactive); in experiment [10], 16.3 µM (inactive); in experiment [11] it was > 100 µM (inactive); in experiment [12], 98.2 µM (inactive); in experiment [17], 88.1 µM (inactive); in experiment [18], > 31 µM (inactive). Also, the GI50 in [13] was > 100 µM (inactive); in [19], > 100 µM (inactive); in [15], > 100 µM (inactive); in experiment [16] it was > 100 µM (inactive); in experiment [20], > 78.9 µM (inactive).
With `COc1cc(/C=C2/C(=O)N(C(=O)OCC(C)C)C(Cc3cc(OC)c(OC)c(C)c3OC)C(=O)N2Cc2ccccc2)c(OC)c(C)c1OC` (centres undefined), the GI50 in [1] was 74.6 µM (inactive); in experiment [2] it was > 100 µM (inactive); in experiment [3] it was 72.1 µM (inactive); in experiment [4], > 100 µM (inactive); in experiment [7], > 100 µM (inactive); in [8], 19.2 µM (inactive). In addition, the GI50 in [9] was 21.8 µM (inactive); in experiment [10], 11.6 µM (inactive); in experiment [11] it was > 100 µM (inactive); in [12], 8.2 µM (inactive); in [17] it was > 100 µM (inactive); in experiment [18], 62.7 µM (inactive). Besides, the GI50 in experiment [13] is > 100 µM (inactive); in experiment [19] it was 4.74 µM (inactive); in experiment [15], 54.7 µM (inactive); in [16], 15.9 µM (inactive); in experiment [20] it was > 100 µM (inactive).
With `CC1=CCCC2C1(C)CCC(C)C2(C)Cc1cc(O)ccc1O` (centres undefined), the GI50 in experiment [1] was 9.16 µM (inactive); in experiment [2], 4.91 µM (inactive); in [3], 6.27 µM (inactive); in [4], 10.8 µM (inactive); in [5] it was 6.59 µM (inactive); in experiment [6] it was 7.24 µM (inactive). In addition, the GI50 is 14.6 µM (inactive) in [7]; 4.81 µM (inactive) in experiment [8]; 2.86 µM (inactive) in experiment [9]; 4.84 µM (inactive) in experiment [10]; 8.49 µM (inactive) in experiment [11]; 1.22 µM (inactive) in [12]. The GI50 in [17] was 5.62 µM (inactive); in [18], 6.3 µM (inactive); in [13], 18.7 µM (inactive); in [14], 11.1 µM (inactive); in experiment [19] it was 5.79 µM (inactive); in [15], 13.5 µM (inactive). The figures for the GI50 in [16] and in [20] were 13.2 µM (inactive) and 7.26 µM (inactive), respectively.
As for `O=C(CC(=O)c1cccc2ccccc12)C(=O)Nc1nccs1`, the GI50 in [1], in experiment [2], in experiment [3], in experiment [4], in experiment [7] and in experiment [8] was > 100 µM (inactive) each time. Also, the GI50 in experiment [9], in [10], in experiment [11], in experiment [12], in experiment [17] and in [18] was > 100 µM (inactive) each time. Further, the GI50 in [13], in experiment [19], in [15], in [16] and in [20] was > 100 µM (inactive) each time.
On to `c1ccc2c(NCCCCCCNc3c4ccccc4nc4ccccc34)c3ccccc3nc2c1`, for which the GI50 in [1] was 1.4 µM (inactive); in experiment [2] it was 0.0214 µM (active); in experiment [3] it was 0.367 µM (active); in [4], 0.429 µM (active); in experiment [5] it was 0.647 µM (active); in experiment [6] it was 0.887 µM (active). Moreover, the GI50 in experiment [7] was 1.01 µM (active); in experiment [8] it was 0.0649 µM (active); in experiment [9], < 0.0358 µM (active); in experiment [10] it was 11.3 µM (inactive); in experiment [11], 0.695 µM (active); in experiment [12], 0.25 µM (active). Besides, the GI50 in experiment [17] was 0.29 µM (active); in experiment [18], 0.281 µM (active); in [13], 0.0287 µM (active); in [14] it was 0.288 µM (active); in [19], 0.24 µM (active); in [15], 0.206 µM (active). Besides, the GI50 is 2.7 µM (inactive) in experiment [16] and 0.56 µM (active) in experiment [20].
As to `C[C@H](N)C(=O)N[C@@H]1[C@H]2C(=C(O)C[C@@H](O)[C@@H]2O)C(=O)O[C@]1(C)C(Cl)Cl` [BACTOBOLIN], the GI50 is 0.129 µM (active) in experiment [1]; 0.327 µM (active) in experiment [2]; 0.207 µM (active) in [3]; 0.133 µM (active) in [4]; 0.209 µM (active) in experiment [5]; 0.248 µM (active) in experiment [6]. Moreover, the GI50 is 0.271 µM (active) in experiment [7]; 0.979 µM (active) in [10]; 0.23 µM (active) in experiment [11]; 0.187 µM (active) in experiment [17]; 0.18 µM (active) in experiment [18]; 0.155 µM (active) in [13]. In addition, the GI50 is 0.105 µM (active) in experiment [14]; 0.111 µM (active) in experiment [19]; 0.152 µM (active) in [15]; 0.378 µM (active) in [16]; 0.184 µM (active) in [20].
